Results as given in ChEMBL document CHEMBL5543072, “Discovery of a novel lead characterized by a stilbene-extended scaffold against sepsis as soluble epoxide hydrolase inhibitors” (Eur J Med Chem, 2024).
Activity calls are given as the source filed them. The calls are words filed in the database; no cut-off is given here.

Experiments:
[1] = Tmax in Sprague-Dawley rat at 20 mg/kg, po measured after 24 hrs; format: ADME, organism-based; conditions: in vivo
Mus musculus [2] = assay: Protection against LPS-induced sepsis in C57BL/6J mouse model assessed as survival rate at 30 mg/kg, iv measured after 48 hrs relative to control; format: functional
in vivo = conditions: C57BL/6J, mouse, other tissue, ip, 5 mg/kg
Description: Ratio of AUC (0 to 24 hrs)in C57BL/6J mouse liver to blood at 5 mg/kg, ip measured after 24 hrs by LC-MS/MS analysis

[3] = Tmax in Sprague-Dawley rat at 5 mg/kg, iv measured after 24 hrs; format: ADME, organism-based; conditions: in vivo
Mus musculus [4] = assay: Anti-inflammatory activity in LPS-induced C57BL/6J mouse model of sepsis assessed as IL-6 in serum at 5 mg/kg, ip preadministered with compound for 24 hrs followed by LPS administration and measured after 3 hrs by ELISA (reference value: 17292 pg/ml); format: functional; conditions: time 27 hrs
Mus musculus [5] = assay: Protection against LPS-induced sepsis in C57BL/6J mouse model assessed as […] at 5 mg/kg, iv measured after 24 hrs relative to control; format: functional
Mus musculus [6] = assay: Protection against LPS-induced sepsis in C57BL/6J mouse model assessed as survival rate at 0.05 mg/kg, iv measured after 72 hrs relative to control; format: functional
Mus musculus [7] = assay: Anti-inflammatory activity in LPS-induced C57BL/6J mouse model of sepsis assessed as IL-6 in liver at 5 mg/kg, ip preadministered with compound for 24 hrs followed by LPS administration and measured after 3 hrs by ELISA (reference value: 308 pg/ml); format: functional; conditions: time 27 hrs
Mus musculus [8] = assay: Protection against LPS-induced sepsis in C57BL/6J mouse model at 0.05 mg/kg, iv measured after 72 hrs; format: functional, organism-based
Mus musculus [9] = assay: Protection against LPS-induced sepsis in C57BL/6J mouse model assessed as survival rate at 0.5 mg/kg, iv measured after 72 hrs relative to control; format: functional
Mus musculus [10] = assay: Protection against LPS-induced sepsis in C57BL/6J mouse model assessed as […] at 5 mg/kg, iv measured after 32 hrs relative to control; format: functional
[11] = Half-life in Sprague-Dawley rat at 5 mg/kg, iv measured after 24 hrs; format: ADME, organism-based; conditions: in vivo
[12] = Oral bioavailability in Sprague-Dawley rat at 20 mg/kg measured after 24 hrs; format: ADME, organism-based; conditions: in vivo
[13] = Cytotoxicity against human HepG2 cells assessed as cell viability at 5 uM incubated for 48 hrs by CCK8 assay relative to control; format: toxicity, cell-based; conditions: read-out: Activity
[14] = AUC (0 to 24 hrs) in C57BL/6J mouse liver at 5 mg/kg, ip measured after 24 hrs by LC-MS/MS analysis; format: ADME, organism-based; conditions: in vivo
[15] = Cytotoxicity in HEK293T cells assessed as cell viability at 50 uM incubated for 48 hrs by CCK8 assay relative to control; format: toxicity, cell-based, HEK-293T; conditions: human, read-out: Activity
Mus musculus [16] = assay: Protection against LPS-induced sepsis in C57BL/6J mouse model assessed as survival rate at 30 mg/kg, iv measured after 72 hrs relative to control; format: functional
[17] = AUC (0 to 24 hrs) in Sprague-Dawley rat at 5 mg/kg, iv measured after 24 hrs; format: ADME, organism-based; conditions: in vivo
[18] = Cytotoxicity in HEK293T cells assessed as cell viability at 5 uM incubated for 48 hrs by CCK8 assay relative to control; format: toxicity, cell-based, HEK-293T; conditions: human, read-out: Activity
Mus musculus [19] = assay: Protection against LPS-induced sepsis in C57BL/6J mouse model assessed as survival rate at 30 mg/kg, iv measured upto 56 hrs relative to control; format: functional
[20] = biological target: T1, Bifunctional epoxide hydrolase 2 (Homo sapiens, UniProt P34913)
T1 sequence (P34913 whole entry): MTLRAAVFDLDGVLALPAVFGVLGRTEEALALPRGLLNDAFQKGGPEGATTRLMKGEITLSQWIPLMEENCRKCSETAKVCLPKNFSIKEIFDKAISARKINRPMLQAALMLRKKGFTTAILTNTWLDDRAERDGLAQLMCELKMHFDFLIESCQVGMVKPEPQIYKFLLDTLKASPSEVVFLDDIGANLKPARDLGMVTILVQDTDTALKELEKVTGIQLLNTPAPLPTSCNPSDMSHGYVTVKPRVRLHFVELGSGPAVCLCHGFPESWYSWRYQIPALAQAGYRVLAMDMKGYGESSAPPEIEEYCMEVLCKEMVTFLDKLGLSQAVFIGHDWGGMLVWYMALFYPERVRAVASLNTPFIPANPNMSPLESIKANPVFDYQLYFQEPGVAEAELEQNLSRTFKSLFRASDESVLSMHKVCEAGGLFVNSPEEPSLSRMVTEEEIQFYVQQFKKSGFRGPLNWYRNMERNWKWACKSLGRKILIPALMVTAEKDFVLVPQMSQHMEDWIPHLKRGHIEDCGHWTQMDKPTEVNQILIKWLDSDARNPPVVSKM

Mus musculus [21] = assay: Anti-inflammatory activity in LPS-induced C57BL/6J mouse model of sepsis assessed as TNF-alpha in liver at 5 mg/kg, ip preadministered with compound for 24 hrs followed by LPS administration and measured after 3 hrs by ELISA (reference value: 298 pg/ml); format: functional; conditions: time 27 hrs
[22] = Cmax in C57BL/6J mouse liver at 5 mg/kg, ip measured after 24 hrs by LC-MS/MS analysis; format: ADME, organism-based
Mus musculus [23] = assay: Protection against LPS-induced sepsis in C57BL/6J mouse model assessed as survival rate at 0.05 mg/kg, iv measured after 24 hrs relative to control; format: functional
[24] = Apparent volume of distribution in Sprague-Dawley rat at 5 mg/kg, iv measured after 24 hrs; format: ADME, organism-based; conditions: in vivo, read-out: Vz
Mus musculus [25] = assay: Protection against LPS-induced sepsis in C57BL/6J mouse model assessed as survival rate at 5 mg/kg, iv measured after 24 hrs relative to control; format: functional
Mus musculus [26] = assay: Anti-inflammatory activity in LPS-induced C57BL/6J mouse model of sepsis assessed as TNF-alpha in serum at 5 mg/kg, ip preadministered with compound for 24 hrs followed by LPS administration and measured after 3 hrs by ELISA (reference value: 282 pg/ml); format: functional; conditions: time 27 hrs
[27] = AUC (0 to 24 hrs)in C57BL/6J mouse blood at 5 mg/kg, ip measured after 24 hrs by LC-MS/MS analysis; format: ADME, organism-based

In the case of `O=C(Cc1ccccn1)Nc1cccc(/C=C/c2ccc(NC(=O)NCC3CCOCC3)cc2)c1`, the Tmax [1] is reported as 30 min, the survival at 30 mg/kg (Mus musculus [2]) is reported as 50% and the Kp at 24 h (in vivo) is reported as 175. It also gave a Tmax [3] of 4.8 min, an Activity (Mus musculus [4]) of 15627 pg/mL and an Activity (Mus musculus [5]) of 40%. For the same compound, the survival at 0.05 mg/kg (Mus musculus [6]) was 10%, the Activity (Mus musculus [7]) was 270 pg/mL and the Activity (Mus musculus [8]) was “inactive”. It also gave a survival at 0.5 mg/kg (Mus musculus [9]) of 40%, an Activity (Mus musculus [10]) of 40% and a half-life [11] of 24 min. For the same compound, the bioavailability [12] was 5.1%, the viability at 48 h, 5 µM [13] was 73.9% and the AUC [14] was 21370 ng·h/g. It also gave a viability at 48 h, 50 µM [15] of 46.6%, a survival at 30 mg/kg (Mus musculus [16]) of 10% and an AUC(0-t) at 24 h [17] of 266 ng·h/mL. The viability at 48 h, 5 µM [18] was 82.9%, the survival at 30 mg/kg (Mus musculus [19]) was over 50% and the IC50 [20] was 1.52 nM. For the same compound, the Activity (Mus musculus [21]) was 193 pg/mL, the Cmax [22] was 2510 ng/g and the survival at 0.05 mg/kg (Mus musculus [23]) was 30%. For the same compound, the Vd [24] was 10.8 L/kg, the survival at 5 mg/kg (Mus musculus [25]) was 60% and the Activity (Mus musculus [26]) was 242 pg/mL. The AUC(0-t) at 24 h [27] was 122 ng·h/mL.
